Here are results for three sequences from patent US20170202939A1, “PERSONALIZED CANCER VACCINES AND METHODS THEREFOR” (Washington University, priority 2014, published 2017).

No end group written: not given here.

Assay [1] relates to neoantigen-specific T cells. The experiment in a line: cytokine production by neoantigen-specific T cells (MILLIPLEX / IFN-γ ELISA). As to conditions: upon antigen stimulation, supernatants at 24 h. In kind it is cell-based, human. The procedure:
For analysis of cytokines secreted by T cells upon SCT activation, cultures were activated 14 d after SCT or AT-SCT stimulation, T cells were restimulated with SCT at 1:1 ratio in RPMI 1640 supplemented with 5% pooled human sera (RPMI-5), supernatants were collected 24 h after activation and characterized using a MILLIPLEX® cytokine kit (Millipore, Billerica, Mass.), per the manufacturer's instructions.
(§1) For functional characterization, neoantigen-specific T cell lines were generated using autologous mDC and antigen loaded artificial antigen presenting cells at a ratio of 1:1 as previously described (Carreno, B. M., et al., J. Immunol., 188, 5839-5849, 2012). […] For production of cytokines, neoantigen-specific T cells were restimulated using artificial antigen presenting cells in the presence or absence of peptide, supernatants collected at 24 h and cytokine produced determined using MILLIPLEX® MAP Human Cytokine Panel I (EMD Millipore).
Substantial evidence supports the hypothesis that Th2/Tc2 immune polarization correlates with worse disease outcome in patients with cancer (Fridman, W. H., et al., Nat. Rev. Cancer, 12, 298-306, 2012). […] Thus, we determined production of cytokines upon antigen stimulation as described above. […] Cytokine production was determined using a multi-plex bead assay. […]
In general terms: ELISA stands for enzyme-linked immunosorbent assay.

Assay [2] has as its system peptide-pulsed T2 (HLA-A*02:01) cells. Kind of assay: 4 h 51Cr-release assay with peptide titrations on T2 cells (peptide avidity, AAS vs WT recognition). As to conditions: peptide presented on T2 cells. In kind it is cell-based, human. The procedure: ^51Cr release assays to measure specific lysis have been described previously (Carreno, B. M., et al., Immunol. Cell Biol., 87: 167-177, 2009; Linette, G. P. et al., Clin. Cancer Res. 11, 7692-7699, 2005). Melanoma cell lines DM6 (HLAA2+ gp100+) and A375 (HLA-A2+gp100−) were labeled with 25 μCi ^51Cr for 1 hour, washed, and tested as targets in a standard 4-hour assay. Effectors were generated using PBMCs collected after D3 and cultured for 12 days in the presence of peptide (40 μg/ml) and IL2 (50 U/ml every other day). Vaccine-induced antigen-specific T cells were characterized using HLAA*0201/peptide dextramers (Immudex). To determine the avidity (effective concentration at 50% maximal lysis) of vaccine-induced T cells for antigen, T2 cells were pulsed with titrated G209-2M or G280-9V peptide concentrations for 1 hour in serum-free media followed by 51Cr (25 μCi) labeling for 1 hour, washed twice, and tested using vaccine-induced gp100-specific T cells in a standard 4-hour assay.
as §1
To examine cross-reactivity, T2 cells were pulsed with MUT or WT peptide at the indicated concentrations, labeled with ^51CR-chromium and used as target in a cytotoxic assay. Vaccine-induced T cells were incubated with peptide-pulsed T2 cells and ^51Cr-Chromium release measured at 4 h. […]
FIG. 34 illustrates that neoantigen-specific T cells recognition of AAS (closed circles) and WT (open circles) peptides was determined in a standard 4 h ^51Cr-release assay using peptide titrations on T2 (HLAA*02:01) cells. […]

Take CLNEYHLFL: in assay [1], the “cytokine phenotype of neoantigen-specific T cells (IFN-γ relative to IL-4, IL-5, IL-13)” value is “mixed phenotype”.

Regarding KLMNIQQKL, the “cytokine phenotype of neoantigen-specific T cells (IFN-γ relative to IL-4, IL-5, IL-13)” value in assay [1] is reported as “Tc1 phenotype”. Besides, the “T cell discrimination between mutated (AAS) and wild-type peptide” value in assay [2] is listed as “can discriminate between peptide sequence containing single an changes”.

Turning to QLSCISTYV, the “T cell discrimination between mutated (AAS) and wild-type peptide” value in assay [2] (listed as OR8B3) is “cannot discriminate between MUT and WT sequences”; in assay [2] (listed as OR8B3 T190I), “could not discriminate between AAS and wild-type (WT) peptide”.
